Results taken from ChEMBL document CHEMBL2029278 (Bioorg Med Chem Lett, 2012).
The source made the active and inactive calls. The calls are words filed in the database; no cut-off is given here.

Assays:
Neuraminidase [1] = biological target: T1, Neuraminidase (Influenza A virus, UniProt B4URF0); assay: Inhibition of Influenza A virus H9N2 neuraminidase using 4-MU-NANA as substrate by fluorescence assay
Neuraminidase [2] = biological target: T1, Neuraminidase; assay: Inhibition of Influenza A virus H1N1 neuraminidase using 4-MU-NANA as substrate by fluorescence assay
Neuraminidase [3] = biological target: T1, Neuraminidase; assay: Inhibition of wild type H1N1 swine influenza virus neuraminidase using 4-MU-NANA as substrate by fluorescence assay
Influenza A virus = assay: Antiviral activity against Influenza A virus PR/8/34 H1N1 infected in dog MDCK cells assessed as reduction in virus-induced cytopathic effect at 5 ug/mL; assay type: functional, organism-based; conditions: A/Puerto Rico/8/1934(H1N1)

T1 sequence (B4URF0 whole entry): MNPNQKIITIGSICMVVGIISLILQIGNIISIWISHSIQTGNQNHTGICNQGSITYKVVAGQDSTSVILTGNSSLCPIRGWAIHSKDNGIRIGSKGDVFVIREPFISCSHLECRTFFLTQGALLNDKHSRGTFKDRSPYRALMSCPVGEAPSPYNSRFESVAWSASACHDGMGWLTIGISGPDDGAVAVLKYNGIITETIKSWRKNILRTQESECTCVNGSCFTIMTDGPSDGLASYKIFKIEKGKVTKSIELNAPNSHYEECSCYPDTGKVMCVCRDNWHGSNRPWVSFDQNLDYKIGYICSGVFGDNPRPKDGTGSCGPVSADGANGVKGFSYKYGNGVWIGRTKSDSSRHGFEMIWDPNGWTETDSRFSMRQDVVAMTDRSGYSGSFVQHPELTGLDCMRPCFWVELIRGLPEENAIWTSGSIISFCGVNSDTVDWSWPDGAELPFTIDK

SMILES | IC50 (Neuraminidase [1]) | IC50 (Neuraminidase [2]) | IC50 (Neuraminidase [3]) | Activity (Influenza A virus)
O=c1c2cc(O)ccc2oc2cccc(O)c12 | 98.4 µM | 103 µM | 50.6 µM | Active
COc1c(O)cc2c(=O)c3ccccc3oc2c1OC | > 367 µM | > 367 µM |  | 
COc1c2c(cc3c(=O)c4ccccc4oc13)OCO2 | > 370 µM | > 370 µM |  | 
COc1ccc(O)c2c(=O)c3cc(O)ccc3oc12 | 99.1 µM | 110 µM | 36.1 µM | Active
O=c1c2cc(O)ccc2oc2cc(O)cc(O)c12 | 101 µM | 110 µM | 54.9 µM | Active
COc1cccc2oc3ccc(O)cc3c(=O)c12 | > 413 µM | > 413 µM |  | 
O=c1c2ccccc2oc2cc(O)cc(O)c12 | 67.7 µM | 102 µM | 48.9 µM | Active
O=c1c2cccc(O)c2oc2cc(O)c(O)c(O)c12 | 76.1 µM | 103 µM | 52.6 µM | Active
COc1cc(O)c2oc3ccccc3c(=O)c2c1OC | > 367 µM | > 367 µM |  | 
COc1c(O)cc2oc3cc(O)ccc3c(=O)c2c1OC | > 347 µM | > 347 µM |  | 
